Reference: patent EP0900210B1, “ANTIVIRALLY ACTIVE HETEROCYCLIC AZAHEXANE DERIVATIVES” (Novartis AG, priority 1996, dated 1997)

target: T1, HIV-1-protease (Human immunodeficiency virus type 1 group M subtype B, UniProt P04585); experiment: Inhibition of HIV-1-protease with icosapeptide substrate […] (HPLC); assay type: biochemical; conditions: icosapeptide RRSNQVSQNYPIVQNIQGRR 122 µM, 20 mM MES pH 6.0, one hour at 37°C; read-out: IC50
T1 construct: made in house
Procedure: The inhibitory action of the compounds of formula I on the proteolytic activity of HIV-1-protease can be shown, for example, according to known procedures (see A. D. Richards et al., J. Biol. Chem. 265(14), 7733-7736 (1990)). In that method the inhibition of the action of HIV-1-protease (preparation: see S. Billich et al., J. Biol. Chem. 263(34), 17905-17908 (1990)) is measured in the presence of the icosapeptide […] (a synthetic substrate of HIV-1-protease, prepared by peptide synthesis in accordance with known procedures (see J. Schneider et al., Cell 54, 363-368 (1988)), which contains as substrate analogue one of the cleavage sites of the gag-precursor protein (natural substrate of HIV-1-protease). That substrate and its cleavage products are analysed by high performance liquid chromatography (HPLC).
The test compound is dissolved in dimethyl sulfoxide. The enzymatic test is carried out by adding suitable dilutions of the inhibitor in 20 mM β-morpholinoethanesulfonic acid (MES) buffer pH 6.0 to the test mixture. That mixture consists of the above-mentioned icosapeptide (122 µM) in 20 mM MES-buffer pH 6.0. 100 µl are used per test batch. The reaction is started by the addition of […] of HIV-1-protease solution and is stopped after one hour's incubation at 37°C by the addition of 10 µl of 0.3M HClO4. After centrifugation of the sample at 10 000 x g for 5 minutes, 20 µl of the resulting supernatant are applied to a 125 x 4.6 mm Nucleosil® C18-5m-HPLC column (reversed-phase material supplied by Macherey & Nagel, Düren, FRG, based on silica gel that has been charged with C18alkyl chains). The uncleaved icosapeptide and its cleavage products are eluted from the column by means of the following gradient: 100 % eluant 1 → 50 % eluant 1 + 50 % eluant 2 (eluant 1: 10 % acetonitrile, 90 % H2O, 0.1 % trifluoroacetic acid (TFA); eluant 2: 75 % acetonitrile, 25 % H2O, 0.08 % TFA) for 15 minutes, throughflow rate 1 ml/min. The quantification of the eluted peptide fragments is carried out by measuring the peak height of the cleavage product at 215 nm.
Using the test system described above with the icosapeptide […], the IC50 values given below are obtained for the following Examples: […]

Work on “1-[4-(Pyrazin-2-yl)-phenyl]-4(S)-hydroxy-2-[N-(N-methoxycarbonyl-(L)-valyl)amino]-5(S)-[N-(N-methoxycarbonyl-(L)-tert-leucyl)amino]-6-phenyl-2-azahexane [Example 44]” yielded an IC50 of 29 nM.

same assay, conditions: icosapeptide […] 122 µM, 20 mM MES pH 6.0, one hour at 37°C; read-out: IC50

COC(=O)N[C@H](C(=O)N[C@@H](Cc1ccccc1)[C@@H](O)CN(Cc1ccc(-c2nnnn2C)cc1)NC(=O)[C@@H](NC(=O)OC)C(C)(C)C)C(C)(C)C [27 (1-methyl-1H-tetrazolyl isomer), 1-[4-(1-methyl-1H-tetrazol-5-yl)-phenyl]-4(S)-hydroxy-5(S)-2,5-bis[N-(N-methoxycarbonyl-(L)-tert-leucyl)amino]-6-phenyl-2-azahexane] and COC(=O)N[C@H](C(=O)N[C@@H](Cc1ccccc1)[C@@H](O)CN(Cc1ccc(-c2cncs2)cc1)NC(=O)[C@@H](NC(=O)OC)C(C)(C)C)C(C)(C)C [Example 3, 1-[4-(Thiazol-5-yl)-phenyl]-4(S)-hydroxy-5(S)-2,5-bis[N-(N-methoxycarbonyl-(L)-tert-leucyl)amino]-6-phenyl-2-azahexane] are within 1.5-fold of each other in IC50: 51 nM for the first, 41 nM for the second.

First: COC(=O)N[C@H](C(=O)N[C@@H](Cc1ccccc1)[C@@H](O)CN(Cc1ccc(-c2cncs2)cc1)NC(=O)[C@@H](NC(=O)OC)C(C)C)C(C)C [Example 1, 1-[4-(Thiazol-5-yl)-phenyl]-4(S)-hydroxy-5(S)-2,5-bis[N-(N-methoxycarbonyl-(L)-valyl)amino]-6-phenyl-2-azahexane]
Second: CCOC(=O)N[C@H](C(=O)NN(Cc1ccc(-c2cncs2)cc1)C[C@H](O)[C@H](Cc1ccccc1)NC(=O)[C@@H](NC(=O)OC)C(C)C)C(C)C [Example 8, 1-[4-(Thiazol-5-yl)-phenyl]-4(S)-hydroxy-2-N-(N-ethoxycarbonyl-(L)-valyl)-amino-5(S)-N-(N-methoxycarbonyl-(L)-valyl)amino-6-phenyl-2-azahexane]
The IC50 of the first is 3.2-fold higher: 32 nM for the first, 10 nM for the second.

COC(=O)N[C@H](C(=O)NN(Cc1ccc(-c2cncs2)cc1)C[C@H](O)[C@H](Cc1ccccc1)NC(=O)[C@@H](NC(=O)OC)C(C)(C)C)C(C)C [Example 2, 1-[4-(Thiazol-5-yl)-phenyl]-4(S)-hydroxy-2-N-(N-methoxycarbonyl-(L)-valyl)-amino-5(S)-N-(N-methoxycarbonyl-(L)-tert-leucyl)amino-6-phenyl-2-azahexane] and COC(=O)N[C@H](C(=O)N[C@@H](Cc1ccccc1)[C@@H](O)CN(Cc1ccc(-c2cncs2)cc1)NC(=O)[C@@H](NC(=O)OC)C(C)(C)C)C(C)C [Example 7, 1-[4-(Thiazol-5-yl)-phenyl]-4(S)-hydroxy-2-N-(N-methoxcarbonyl-(L)-tert-leucyl)amino-5(S)-N-(N-methoxycarbonyl-(L)-valyl)amino-6-phenyl-2-azahexane] are within 1.5-fold of each other in IC50: 14 nM for the first, 13 nM for the second.

CC[C@H](C)[C@H](NC(=O)OC)C(=O)NN(Cc1ccc(-c2cncs2)cc1)C[C@H](O)[C@H](Cc1ccccc1)NC(=O)[C@@H](NC(=O)OC)C(C)(C)C [Example 4, 1-[4-(Thiazol-5-yl)-phenyl]-4(S)-hydroxy-2-N-(N-methoxycarbonyl-(L)-iso-leucyl)amino-5(S)-N-(N-methoxycarbonyl-(L)-tert-leucyl)amino-6-phenyl-2-azahexane] and CC[C@H](C)[C@H](NC(=O)OC)C(=O)N[C@@H](Cc1ccccc1)[C@@H](O)CN(Cc1ccc(-c2cncs2)cc1)NC(=O)[C@@H](NC(=O)OC)C(C)(C)C [Example 11, 1-[4-(Thiazol-5-yl)-phenyl]-4(S)-hydroxy-2-N-(N-methoxycarbonyl-(L)-tert-leucyl)amino-5(S)-N-(N-methoxycarbonyl-(L)-iso-leucyl)amino-6-phenyl-2-azahexane] are within 1.5-fold of each other in IC50: 38 nM for the first, 37 nM for the second.

Compared with COC(=O)N[C@@H](CSC)C(=O)NN(Cc1ccc(-c2cncs2)cc1)C[C@H](O)[C@H](Cc1ccccc1)NC(=O)[C@@H](NC(=O)OC)C(C)(C)C [Example 5, 1-[4-(Thiazol-5-yl)-phenyl]-4(S)-hydroxy-2-N-(N-methoxycarbonyl-(L)-S-methylcysteinyl)amino-5(S)-N-(N-methoxycarbonyl-(L)-tert-leucyl)amino-6-phenyl-2-azahexane], COC(=O)N[C@@H](CSC)C(=O)NN(Cc1ccc(-c2cncs2)cc1)C[C@H](O)[C@H](Cc1ccccc1)NC(=O)[C@@H](NC(=O)OC)C(C)C [Example 10, 1-[4-(Thiazol-5-yl)-phenyl]-4(S)-hydroxy-2-N-(N-methoxycarbonyl-(L)-S-methylcysteinyl)amino-5(S)-N-(N-methoxycarbonyl-(L)-valyl)amino-6-phenyl-2-azahexane] is 2-fold lower in IC50: 40 nM for the first, 20 nM for the second. The second is the more potent here.

CCOC(=O)N[C@H](C(=O)NN(Cc1ccc(-c2cncs2)cc1)C[C@H](O)[C@H](Cc1ccccc1)NC(=O)[C@@H](NC(=O)OC)C(C)(C)C)C(C)C [Example 6, 1-[4-(Thiazol-5-yl)-phenyl]-4(S)-hydroxy-2-N-(N-ethoxycarbonyl-(L)-valyl)-amino-5(S)-N-(N-methoxycarbonyl-(L)-tert-leucyl)amino-6-phenyl-2-azahexane] and CCOC(=O)N[C@H](C(=O)NN(Cc1ccc(-c2cncs2)cc1)C[C@H](O)[C@H](Cc1ccccc1)NC(=O)[C@@H](NC(=O)OC)[C@@H](C)CC)C(C)C [Example 14, 1-[4-(Thiazol-5-yl)-phenyl]-4(S)-hydroxy-2-N-(N-ethoxycarbonyl-(L)-valyl)-amino-5(S)-N-(N-methoxycarbonyl-(L)-iso-leucyl)amino-6-phenyl-2-azahexane] are within 1.5-fold of each other in IC50: 22 nM for the first, 31 nM for the second.

CC[C@H](C)[C@H](NC(=O)OC)C(=O)NN(Cc1ccc(-c2cncs2)cc1)C[C@H](O)[C@H](Cc1ccccc1)NC(=O)[C@@H](NC(=O)OC)C(C)C [Example 9, 1-[4-(Thiazol-5-yl)-phenyl]-4(S)-hydroxy-2-N-(N-methoxycarbonyl-(L)-isoleucyl)amino-5(S)-N-(N-methoxycarbonyl-(L)-valyl)amino-6-phenyl-2-azahexane] and CC[C@H](C)[C@H](NC(=O)OC)C(=O)N[C@@H](Cc1ccccc1)[C@@H](O)CN(Cc1ccc(-c2cncs2)cc1)NC(=O)[C@@H](NC(=O)OC)C(C)C [Example 12, 1-[4-(Thiazol-5-yl)-phenyl]-4(S)-hydroxy-2-N-(N-methoxycarbonyl-(L)-valyl)amino-5(S)-N-(N-methoxycarbonyl-(L)-iso-leucyl)amino-6-phenyl-2-azahexane] are within 1.5-fold of each other in IC50: 19 nM for the first, 20 nM for the second.

First: CC[C@H](C)[C@H](NC(=O)OC)C(=O)N[C@@H](Cc1ccccc1)[C@@H](O)CN(Cc1ccc(-c2cncs2)cc1)NC(=O)[C@@H](NC(=O)OC)[C@@H](C)CC [Example 13, 1-[4-(Thiazol-5-yl)-phenyl]-4(S)-hydroxy-5(S)-2,5-bis[N-(N-methoxycarbonyl-(L)-iso-leucyl)amino]-6-phenyl-2-azahexane]
Second: CC[C@H](C)[C@H](NC(=O)OC)C(=O)N[C@@H](Cc1ccccc1)[C@@H](O)CN(Cc1ccc(-c2cncs2)cc1)NC(=O)[C@H](CSC)NC(=O)OC [Example 15, 1-[4-(Thiazol-5-yl)-phenyl]-4(S)-hydroxy-2-N-(N-methoxycarbonyl-(L)-S-methylcysteinyl)amino-5(S)-N-(N-methoxycarbonyl-(L)-iso-leucyl)amino-6-phenyl-2-azahexane]
The IC50 of the first is 1.6-fold lower: 32 nM for the first, 50 nM for the second. The first is the more potent here.

Compared with COC(=O)N[C@H](C(=O)N[C@@H](Cc1ccccc1)[C@@H](O)CN(Cc1ccc(-c2nccs2)cc1)NC(=O)[C@@H](NC(=O)OC)C(C)(C)C)C(C)(C)C [Example 16, 1-[4-(Thiazol-2-yl)-phenyl]-4(S)-hydroxy-5(S)-2,5-bis[N-(N-methoxycarbonyl-(L)-tert-leucyl)amino]-6-phenyl-2-azahexane], COC(=O)N[C@H](C(=O)N[C@@H](Cc1ccccc1)[C@@H](O)CN(Cc1ccc(-c2nccs2)cc1)NC(=O)[C@@H](NC(=O)OC)C(C)(C)C)C(C)C [Example 17, 1-[4-(Thiazol-2-yl)-phenyl]-4(S)-hydroxy-2-N-(N-methoxycarbonyl-(L)-tert-leucyl)amino-5(S)-N-(N-methoxycarbonyl-(L)-valyl)amino-6-phenyl-2-azahexane] is 1.8-fold lower in IC50: 33 nM for the first, 18 nM for the second.

In the case of CC[C@H](C)[C@H](NC(=O)OC)C(=O)NN(Cc1ccc(-c2nccs2)cc1)C[C@H](O)[C@H](Cc1ccccc1)NC(=O)[C@@H](NC(=O)OC)C(C)C [Example 18, 1-[4-(Thiazol-2-yl)-phenyl]-4(S)-hydroxy-2-N-(N-methoxycarbonyl-(L)-iso-leucyl)amino-5(S)-N-(N-methoxycarbonyl-(L)-valyl)amino-6-phenyl-2-azahexane], the IC50 is reported as 25 nM.
